According to ChEMBL document CHEMBL5653615 (J Biol Chem, 2013):

Tests used:
[1] = target: Tyrosine-protein kinase FRK (Homo sapiens) (UniProt P42685); test: Inhibition of human FRK at 500 nM by HotSpot assay relative to control
[2] = target: CDK4/Cyclin D3 (Homo sapiens) (UniProt P11802+P30281); test: Inhibition of human CDK4/cyclin D3 at 500 nM by HotSpot assay relative to control; assay type: protein-complex assay
[3] = target: Focal adhesion kinase 1 (Homo sapiens) (UniProt Q05397); test: Inhibition of human FAK at 500 nM by HotSpot assay relative to control
[4] = target: Fibroblast growth factor receptor 3 (Homo sapiens) (UniProt P22607); test: Inhibition of human FGFR3 at 500 nM by HotSpot assay relative to control
[5] = target: Serine/threonine-protein kinase 16 (Homo sapiens) (UniProt O75716); test: Inhibition of human STK16 at 500 nM by HotSpot assay relative to control
[6] = target: T1, Dual specificity tyrosine-phosphorylation-regulated kinase 2 (Homo sapiens) (UniProt Q92630); test: Inhibition of human DYRK2 at 500 nM by HotSpot assay relative to control
T1 sequence (whole entry): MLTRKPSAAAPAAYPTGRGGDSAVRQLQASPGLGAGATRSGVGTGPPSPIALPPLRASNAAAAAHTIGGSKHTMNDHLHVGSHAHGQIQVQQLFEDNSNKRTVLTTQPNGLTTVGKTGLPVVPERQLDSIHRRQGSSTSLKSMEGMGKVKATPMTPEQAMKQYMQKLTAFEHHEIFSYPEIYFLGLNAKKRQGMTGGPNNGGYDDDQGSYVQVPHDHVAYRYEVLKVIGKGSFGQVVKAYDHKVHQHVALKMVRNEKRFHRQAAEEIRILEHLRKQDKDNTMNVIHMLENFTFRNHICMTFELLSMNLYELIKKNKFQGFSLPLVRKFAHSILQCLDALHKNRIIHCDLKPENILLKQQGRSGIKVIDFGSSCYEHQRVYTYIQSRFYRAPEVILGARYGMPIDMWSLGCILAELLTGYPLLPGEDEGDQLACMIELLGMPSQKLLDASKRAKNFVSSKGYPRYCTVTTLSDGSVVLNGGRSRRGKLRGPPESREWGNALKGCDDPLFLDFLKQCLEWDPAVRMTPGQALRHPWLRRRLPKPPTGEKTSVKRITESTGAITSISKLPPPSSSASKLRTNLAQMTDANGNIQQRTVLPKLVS

[7] = target: Serine/threonine-protein kinase N1 (Homo sapiens) (UniProt Q16512); test: Inhibition of human PRK1 at 500 nM by HotSpot assay relative to control
[8] = target: Tyrosine-protein kinase Yes (Homo sapiens) (UniProt P07947); test: Inhibition of human YES1 at 500 nM by HotSpot assay relative to control
[9] = target: Serine/threonine-protein kinase PLK3 (Homo sapiens) (UniProt Q9H4B4); test: Inhibition of human PLK3 at 500 nM by HotSpot assay relative to control
[10] = target: Myosin light chain kinase 2, skeletal/cardiac muscle (Homo sapiens) (UniProt Q9H1R3); test: Inhibition of human MYLK2 at 500 nM by HotSpot assay relative to control
[11] = target: T2, Aurora kinase C (Homo sapiens) (UniProt Q9UQB9); test: Inhibition of human Aurora C at 500 nM by HotSpot assay relative to control
T2 sequence (whole entry): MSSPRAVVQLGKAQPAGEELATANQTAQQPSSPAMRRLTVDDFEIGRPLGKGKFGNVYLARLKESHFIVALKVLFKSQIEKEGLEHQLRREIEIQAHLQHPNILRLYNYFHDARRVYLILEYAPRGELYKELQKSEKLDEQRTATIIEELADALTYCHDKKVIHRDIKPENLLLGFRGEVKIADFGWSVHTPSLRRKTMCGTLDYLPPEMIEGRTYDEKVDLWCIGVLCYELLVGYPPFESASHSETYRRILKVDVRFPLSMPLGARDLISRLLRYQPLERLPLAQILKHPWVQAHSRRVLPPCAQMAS

[12] = target: Ephrin type-A receptor 7 (Homo sapiens) (UniProt Q15375); test: Inhibition of human EPHA7 at 500 nM by HotSpot assay relative to control
[13] = target: Protein kinase C beta type (Homo sapiens) (UniProt P05771); test: Inhibition of human PKCb2 at 500 nM by HotSpot assay relative to control
[14] = target: T3, Serine/threonine-protein kinase Nek2 (Homo sapiens) (UniProt P51955); test: Inhibition of human NEK2 at 500 nM by HotSpot assay relative to control
T3 sequence (whole entry): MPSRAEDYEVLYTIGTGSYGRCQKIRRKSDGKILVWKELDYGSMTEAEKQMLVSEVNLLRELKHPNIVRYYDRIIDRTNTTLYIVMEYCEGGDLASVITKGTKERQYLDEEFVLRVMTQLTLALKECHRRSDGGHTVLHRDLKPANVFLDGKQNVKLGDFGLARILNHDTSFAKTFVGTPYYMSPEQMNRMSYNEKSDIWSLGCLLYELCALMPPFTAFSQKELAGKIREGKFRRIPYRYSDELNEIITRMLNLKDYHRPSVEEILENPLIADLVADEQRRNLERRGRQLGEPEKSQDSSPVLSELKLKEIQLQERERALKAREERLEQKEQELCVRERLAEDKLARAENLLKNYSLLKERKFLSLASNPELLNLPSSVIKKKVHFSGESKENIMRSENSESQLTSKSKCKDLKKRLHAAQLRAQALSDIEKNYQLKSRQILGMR

[15] = target: Tyrosine-protein kinase ABL2 (Homo sapiens) (UniProt P42684); test: Inhibition of human ABL2 at 500 nM by HotSpot assay relative to control
[16] = target: Serine/threonine-protein kinase Nek7 (Homo sapiens) (UniProt Q8TDX7); test: Inhibition of human NEK7 at 500 nM by HotSpot assay relative to control
[17] = target: Serine/threonine-protein kinase 26 (Homo sapiens) (UniProt Q9P289); test: Inhibition of human MST4 at 500 nM by HotSpot assay relative to control
[18] = target: Calcium/calmodulin-dependent protein kinase type II subunit gamma (Homo sapiens) (UniProt Q13555); test: Inhibition of human CAMK2g at 500 nM by HotSpot assay relative to control
[19] = target: Serine/threonine-protein kinase MRCK alpha (Homo sapiens) (UniProt Q5VT25); test: Inhibition of human CDC42BPA at 500 nM by HotSpot assay relative to control
[20] = target: Mitogen-activated protein kinase kinase kinase 8 (Homo sapiens) (UniProt P41279); test: Inhibition of human COT1 at 500 nM by HotSpot assay relative to control
[21] = target: cAMP-dependent protein kinase (PKA) (Homo sapiens) (UniProt P22694+P17612+P22612); test: Inhibition of human PKA at 500 nM by HotSpot assay relative to control; assay type: protein assay
[22] = target: Protein kinase C eta type (Homo sapiens) (UniProt P24723); test: Inhibition of human PKCeta at 500 nM by HotSpot assay relative to control

Sequence of Protein kinase C beta type (Homo sapiens) (P05771 2-671 limits assumed): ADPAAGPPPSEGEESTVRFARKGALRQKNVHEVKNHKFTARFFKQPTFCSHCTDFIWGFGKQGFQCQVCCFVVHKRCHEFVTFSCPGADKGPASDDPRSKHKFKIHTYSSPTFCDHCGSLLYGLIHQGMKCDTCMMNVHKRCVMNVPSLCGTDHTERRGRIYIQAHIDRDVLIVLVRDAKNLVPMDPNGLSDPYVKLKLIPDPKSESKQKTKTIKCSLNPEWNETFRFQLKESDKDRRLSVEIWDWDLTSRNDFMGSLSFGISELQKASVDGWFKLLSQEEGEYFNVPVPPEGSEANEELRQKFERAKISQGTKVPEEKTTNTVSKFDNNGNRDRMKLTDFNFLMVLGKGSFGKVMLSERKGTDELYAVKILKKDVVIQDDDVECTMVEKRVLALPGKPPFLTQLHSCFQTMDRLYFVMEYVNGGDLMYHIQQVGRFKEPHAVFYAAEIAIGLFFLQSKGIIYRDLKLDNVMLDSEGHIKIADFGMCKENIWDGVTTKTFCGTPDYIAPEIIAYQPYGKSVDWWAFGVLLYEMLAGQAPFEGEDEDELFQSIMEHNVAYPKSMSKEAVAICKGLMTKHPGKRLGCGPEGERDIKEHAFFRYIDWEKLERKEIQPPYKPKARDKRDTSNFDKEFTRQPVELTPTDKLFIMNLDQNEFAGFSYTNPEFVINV
Sequence of Serine/threonine-protein kinase PLK3 (Homo sapiens) (Q9H4B4 whole entry, looked up): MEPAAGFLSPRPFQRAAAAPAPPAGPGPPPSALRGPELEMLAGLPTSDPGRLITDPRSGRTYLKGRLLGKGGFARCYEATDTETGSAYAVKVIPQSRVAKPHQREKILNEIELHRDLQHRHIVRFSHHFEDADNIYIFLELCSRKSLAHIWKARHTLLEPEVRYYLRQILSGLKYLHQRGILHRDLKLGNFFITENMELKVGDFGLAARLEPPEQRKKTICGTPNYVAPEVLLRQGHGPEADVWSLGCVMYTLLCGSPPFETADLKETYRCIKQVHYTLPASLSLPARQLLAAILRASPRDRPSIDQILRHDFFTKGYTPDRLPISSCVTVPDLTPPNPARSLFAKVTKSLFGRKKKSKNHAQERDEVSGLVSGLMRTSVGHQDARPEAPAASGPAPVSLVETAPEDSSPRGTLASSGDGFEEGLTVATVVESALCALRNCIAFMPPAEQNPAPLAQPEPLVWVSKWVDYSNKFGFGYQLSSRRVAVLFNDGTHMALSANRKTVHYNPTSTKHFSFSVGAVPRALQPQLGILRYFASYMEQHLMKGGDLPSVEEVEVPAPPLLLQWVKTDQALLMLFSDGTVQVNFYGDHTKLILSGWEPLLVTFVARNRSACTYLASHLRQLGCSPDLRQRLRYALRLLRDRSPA
Sequence of Serine/threonine-protein kinase MRCK alpha (Homo sapiens) (Q5VT25 whole entry): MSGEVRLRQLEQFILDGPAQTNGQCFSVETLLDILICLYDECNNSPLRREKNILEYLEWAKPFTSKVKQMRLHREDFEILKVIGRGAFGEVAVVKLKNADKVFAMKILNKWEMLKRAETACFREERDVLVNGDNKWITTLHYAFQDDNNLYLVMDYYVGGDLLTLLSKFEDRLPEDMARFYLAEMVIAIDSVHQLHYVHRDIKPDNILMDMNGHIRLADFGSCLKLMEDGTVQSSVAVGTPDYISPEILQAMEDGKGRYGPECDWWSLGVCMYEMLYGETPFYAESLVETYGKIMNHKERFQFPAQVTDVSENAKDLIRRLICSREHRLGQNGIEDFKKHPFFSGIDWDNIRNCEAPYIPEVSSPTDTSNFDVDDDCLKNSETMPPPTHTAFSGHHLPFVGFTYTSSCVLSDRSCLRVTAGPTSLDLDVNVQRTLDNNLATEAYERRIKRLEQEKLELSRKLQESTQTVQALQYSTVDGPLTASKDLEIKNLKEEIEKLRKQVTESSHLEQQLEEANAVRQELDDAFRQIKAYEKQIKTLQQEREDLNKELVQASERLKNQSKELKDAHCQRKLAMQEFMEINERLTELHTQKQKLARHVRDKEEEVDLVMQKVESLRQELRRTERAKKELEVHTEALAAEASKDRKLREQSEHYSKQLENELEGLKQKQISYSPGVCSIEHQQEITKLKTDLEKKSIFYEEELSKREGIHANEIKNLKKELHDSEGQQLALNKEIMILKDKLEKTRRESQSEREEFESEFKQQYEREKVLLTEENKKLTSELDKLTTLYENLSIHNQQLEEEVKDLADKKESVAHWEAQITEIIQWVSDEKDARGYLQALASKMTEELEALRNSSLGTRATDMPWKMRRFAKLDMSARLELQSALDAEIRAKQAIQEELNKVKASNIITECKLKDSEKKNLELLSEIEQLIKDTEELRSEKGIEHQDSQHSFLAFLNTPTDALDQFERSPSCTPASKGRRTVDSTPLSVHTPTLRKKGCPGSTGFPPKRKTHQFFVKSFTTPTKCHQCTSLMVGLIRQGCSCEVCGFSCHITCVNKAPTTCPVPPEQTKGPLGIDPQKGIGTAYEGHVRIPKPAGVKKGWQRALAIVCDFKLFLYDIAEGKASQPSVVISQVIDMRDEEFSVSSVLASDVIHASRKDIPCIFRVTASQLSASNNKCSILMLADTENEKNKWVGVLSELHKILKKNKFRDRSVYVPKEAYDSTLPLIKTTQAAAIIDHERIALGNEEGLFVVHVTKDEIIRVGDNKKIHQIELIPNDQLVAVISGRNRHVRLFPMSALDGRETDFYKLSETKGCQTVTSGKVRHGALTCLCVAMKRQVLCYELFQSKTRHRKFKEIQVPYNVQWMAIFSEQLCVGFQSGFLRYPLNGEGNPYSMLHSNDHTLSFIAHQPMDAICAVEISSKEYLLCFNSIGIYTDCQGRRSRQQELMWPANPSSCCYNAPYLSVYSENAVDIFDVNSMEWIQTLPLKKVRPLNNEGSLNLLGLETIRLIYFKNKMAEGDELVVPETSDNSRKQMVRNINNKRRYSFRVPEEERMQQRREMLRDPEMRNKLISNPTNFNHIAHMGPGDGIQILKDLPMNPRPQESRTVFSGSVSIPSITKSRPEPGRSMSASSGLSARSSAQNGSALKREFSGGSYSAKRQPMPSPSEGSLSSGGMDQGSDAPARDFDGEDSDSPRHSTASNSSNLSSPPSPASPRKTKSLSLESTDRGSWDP
Sequence of Serine/threonine-protein kinase Nek7 (Homo sapiens) (Q8TDX7 whole entry, looked up): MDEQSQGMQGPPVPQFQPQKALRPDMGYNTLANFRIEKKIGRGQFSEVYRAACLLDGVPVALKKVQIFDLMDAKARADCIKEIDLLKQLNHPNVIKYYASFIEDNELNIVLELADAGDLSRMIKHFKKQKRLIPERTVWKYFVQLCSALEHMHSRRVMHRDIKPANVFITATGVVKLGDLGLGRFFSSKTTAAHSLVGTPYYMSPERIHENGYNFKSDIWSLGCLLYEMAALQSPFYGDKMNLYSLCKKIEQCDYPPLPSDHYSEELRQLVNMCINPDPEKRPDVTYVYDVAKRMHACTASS
Sequence of Tyrosine-protein kinase FRK (Homo sapiens) (P42685 whole entry): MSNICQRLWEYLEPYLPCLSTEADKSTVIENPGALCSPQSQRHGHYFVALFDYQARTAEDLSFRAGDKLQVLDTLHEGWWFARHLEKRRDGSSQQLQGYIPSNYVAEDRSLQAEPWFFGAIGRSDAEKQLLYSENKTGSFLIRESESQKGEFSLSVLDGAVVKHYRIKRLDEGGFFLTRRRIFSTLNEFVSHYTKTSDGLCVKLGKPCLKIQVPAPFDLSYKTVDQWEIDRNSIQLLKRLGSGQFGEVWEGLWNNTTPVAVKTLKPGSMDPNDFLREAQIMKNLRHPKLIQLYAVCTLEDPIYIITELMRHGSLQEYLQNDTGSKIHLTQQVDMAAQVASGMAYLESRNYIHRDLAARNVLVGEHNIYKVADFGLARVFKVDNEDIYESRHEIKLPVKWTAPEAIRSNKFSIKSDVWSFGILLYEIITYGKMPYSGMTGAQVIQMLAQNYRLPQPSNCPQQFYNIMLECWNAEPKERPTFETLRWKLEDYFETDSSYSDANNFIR
Sequence of Mitogen-activated protein kinase kinase kinase 8 (Homo sapiens) (P41279 whole entry): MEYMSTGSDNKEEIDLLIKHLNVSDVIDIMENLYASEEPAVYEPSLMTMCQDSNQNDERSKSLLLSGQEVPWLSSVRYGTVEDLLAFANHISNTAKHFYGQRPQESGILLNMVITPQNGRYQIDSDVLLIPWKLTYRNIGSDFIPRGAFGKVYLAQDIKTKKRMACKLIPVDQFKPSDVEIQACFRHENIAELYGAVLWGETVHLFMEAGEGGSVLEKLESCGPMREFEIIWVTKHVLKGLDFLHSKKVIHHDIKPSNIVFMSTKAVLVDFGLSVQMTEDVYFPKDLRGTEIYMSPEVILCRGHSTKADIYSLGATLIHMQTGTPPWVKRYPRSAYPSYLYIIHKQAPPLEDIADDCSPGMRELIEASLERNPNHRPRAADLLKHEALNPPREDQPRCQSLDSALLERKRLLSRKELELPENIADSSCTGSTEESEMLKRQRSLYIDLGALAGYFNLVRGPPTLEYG
Sequence of Myosin light chain kinase 2, skeletal/cardiac muscle (Homo sapiens) (Q9H1R3 whole entry): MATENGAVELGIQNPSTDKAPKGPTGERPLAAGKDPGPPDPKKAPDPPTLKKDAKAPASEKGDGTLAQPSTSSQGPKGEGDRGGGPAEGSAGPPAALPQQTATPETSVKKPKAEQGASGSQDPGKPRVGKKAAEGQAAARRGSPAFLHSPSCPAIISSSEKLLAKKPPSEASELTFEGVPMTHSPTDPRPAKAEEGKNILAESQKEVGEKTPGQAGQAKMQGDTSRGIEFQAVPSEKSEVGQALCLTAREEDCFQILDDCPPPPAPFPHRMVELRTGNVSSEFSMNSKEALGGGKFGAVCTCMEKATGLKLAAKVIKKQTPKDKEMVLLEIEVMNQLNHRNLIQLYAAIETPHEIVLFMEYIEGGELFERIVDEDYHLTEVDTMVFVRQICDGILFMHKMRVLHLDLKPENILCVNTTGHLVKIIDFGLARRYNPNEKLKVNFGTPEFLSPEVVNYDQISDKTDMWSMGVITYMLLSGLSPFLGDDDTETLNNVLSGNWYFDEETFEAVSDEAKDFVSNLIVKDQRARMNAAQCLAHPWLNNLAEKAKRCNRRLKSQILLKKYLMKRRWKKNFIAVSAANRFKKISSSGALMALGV

| SMILES | inhibition [1] [%] | inhibition [2] [%] | inhibition [3] [%] | inhibition [4] [%] | inhibition [5] [%] | inhibition [6] [%] | inhibition [7] [%] | inhibition [8] [%] | inhibition [9] [%] | inhibition [10] [%] | inhibition [11] [%] | inhibition [12] [%] | inhibition [13] [%] | inhibition [14] [%] | inhibition [15] [%] | inhibition [16] [%] | inhibition [17] [%] | inhibition [18] [%] | inhibition [19] [%] | inhibition [20] [%] | also measured |
| --- | --- | --- | --- | --- | --- | --- | --- | --- | --- | --- | --- | --- | --- | --- | --- | --- | --- | --- | --- | --- | --- |
| Nc1n[nH]c2nnc(-c3c(-c4ccccc4)nn4ccccc34)cc12 | -1.32 | -0.36 | 0.84 | -1.72 | -7.84 | -3.42 | 1.8 | 8.91 | -0.08 | -0.61 | 3.59 | 0.55 | 0.34 | 4.69 | 42.5 | 4.72 | 24.1 | 3.3 | 10.3 | 4.98 | inhibition [21]: 2.35%; inhibition [22]: 22.8% |
| Oc1n[nH]c2nnc(-c3c(-c4ccccc4)nn4ccccc34)cc12 | -4.01 | -0.94 | -3.2 | -3.4 | 1.39 | -3.03 | -0.85 | 4.49 | 1.17 | -2.71 | 2.04 | 0.96 | -2.98 | -3.97 | 3.05 | 3.15 | 3.66 | 2.06 | 6.74 | 4.58 | inhibition [21]: -5.26%; inhibition [22]: 3.76% |
